Data as given in US11827639B2, “TDO2 and IDO1 inhibitors” (Genentech, Inc., priority 2017, dated 2023).
pEC50: −log10 of the molar value.

How the values were obtained:
TDO2 = TDO2 (Homo sapiens, UniProt P48775); assay: cell-based
IDO1 = IDO1 (Homo sapiens, UniProt P14902); assay: cell-based
IDO1, sequence (P14902 whole entry): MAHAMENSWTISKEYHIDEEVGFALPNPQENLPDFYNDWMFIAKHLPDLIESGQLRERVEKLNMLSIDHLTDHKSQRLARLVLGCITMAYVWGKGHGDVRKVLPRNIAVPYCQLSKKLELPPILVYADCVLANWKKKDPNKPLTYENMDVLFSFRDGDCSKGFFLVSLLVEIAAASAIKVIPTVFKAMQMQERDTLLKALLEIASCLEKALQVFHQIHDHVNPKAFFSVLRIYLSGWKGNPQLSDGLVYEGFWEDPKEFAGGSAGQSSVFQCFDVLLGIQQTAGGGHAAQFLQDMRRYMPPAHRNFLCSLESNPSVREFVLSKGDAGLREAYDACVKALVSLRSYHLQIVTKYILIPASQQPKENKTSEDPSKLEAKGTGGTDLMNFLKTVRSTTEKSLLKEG

TDO2, sequence (P48775 whole entry): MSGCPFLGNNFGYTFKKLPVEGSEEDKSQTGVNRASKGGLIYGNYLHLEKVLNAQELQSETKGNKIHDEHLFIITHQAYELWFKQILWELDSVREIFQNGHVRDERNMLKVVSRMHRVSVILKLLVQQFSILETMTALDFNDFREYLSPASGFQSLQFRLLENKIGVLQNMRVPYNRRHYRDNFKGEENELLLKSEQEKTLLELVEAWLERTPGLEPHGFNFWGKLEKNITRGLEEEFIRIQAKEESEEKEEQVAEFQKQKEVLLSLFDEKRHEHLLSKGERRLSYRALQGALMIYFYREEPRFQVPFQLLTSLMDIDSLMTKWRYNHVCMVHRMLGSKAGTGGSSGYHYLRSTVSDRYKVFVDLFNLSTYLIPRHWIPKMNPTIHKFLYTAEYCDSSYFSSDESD

Row | pEC50 (TDO2) | pEC50 (IDO1) | SMILES
1 | 5.60 | 5.85 | CS(=O)(=O)N1CC2(CCC(C3c4ccccc4-c4cncn43)CC2)C1 (single isomer, unassigned) [Example 78b]
2 | 4.66 |  | CS(=O)(=O)C1CCC(C2c3ccccc3-c3cncn32)CC1 (single isomer, unassigned) [Example 83a]
3 | 5.00 | 4.77 | NC(=O)C1CCC(C2c3ccccc3-c3cncn32)CC1 (single isomer, unassigned) [Example 60d]
4 | 4.77 |  | CS(=O)(=O)N1CC2(CC(C3c4ccccc4-c4cncn43)C2)C1 (single isomer, unassigned) [Example 72b]
5 | 7.19 | 5.32 | NS(=O)(=O)N1CCC(C2c3ccc(F)cc3-c3cncn32)CC1 (single isomer, unassigned) [Example 74b]
6 |  | 5.19 | NC(=O)C1CCC(C2c3ccccc3-c3cncn32)CC1 (single isomer, unassigned) [Example 60c]
7 | 6.23 | 4.66 | CC(O)c1cccc(C2c3ccccc3-c3cncn32)c1 (single isomer, unassigned) [Example 10c]
8 | 5.68 | 5.12 | CS(=O)(=O)N1CC2CC(C3c4ccccc4-c4cncn43)CC2C1 (stereo not drawn) [Example 75a, 5-(2-(methylsulfonyl)octahydrocyclopenta[c]pyrrol-5-yl)-5H-imidazo[5,1-a]isoindole]
9 | 4.77 | 5.00 | c1ccc2c(c1)-c1cncn1[C@@H]2C1CCCCC1 [Example 19a]
10 | 5.00 | 4.74 | CS(=O)(=O)N1CC2(CCC(C3c4ccccc4-c4cncn43)CC2)C1 (single isomer, unassigned) [Example 78a]
11 | 6.14 | 5.52 | CS(=O)(=O)N1CC2(CC(C3c4ccccc4-c4cncn43)C2)C1 (single isomer, unassigned) [Example 72a]
12 | 5.15 |  | Cn1cc(C2c3ccccc3-c3cncn32)ccc1=O (single isomer, unassigned) [Example 84a]
13 | 6.57 | 5.82 | NC(=O)C1CCC(C2c3ccccc3-c3cncn32)CC1 (single isomer, unassigned) [Example 60b]
14 | 6.44 | 4.92 | Cn1cc(C2c3ccccc3-c3cncn32)ccc1=O (single isomer, unassigned) [Example 84b]
15 | 6.11 | 5.09 | Cn1ncc2cc(C3c4ccccc4-c4cncn43)ccc21 (stereo not drawn) [Example 55b]
16 | 6.11 | 5.64 | CS(=O)(=O)C1CCC(C2c3ccccc3-c3cncn32)CC1 (single isomer, unassigned) [Example 83b]
17 | 5.00 |  | Cn1cc(C2c3ccccc3-c3cncn32)cn1 (single isomer, unassigned) [Example 79a]
18 | 5.24 |  | CC(O)c1cccc(C2c3ccccc3-c3cncn32)c1 (single isomer, unassigned) [Example 10b]
19 | 5.30 |  | CC(O)c1cccc(C2c3ccccc3-c3cncn32)c1 (single isomer, unassigned) [Example 10d]

The next lines start with the compound.

Row | SMILES | pEC50 (TDO2) | pEC50 (IDO1)
20 | c1ccc2c(c1)-c1cncn1C2C1CCC1 (stereo not drawn) [Example 34, 5-cyclobutyl-5H-imidazo[5,1-a]isoindole] | 6.00 | 5.62
21 | OCc1cc(F)cc(C2c3ccccc3-c3cncn32)c1 (single isomer, unassigned) [Example 09a] | 6.16 | 4.68
22 | NS(=O)(=O)N1CCCC(C2c3ccccc3-c3cncn32)C1 (stereo not drawn) [Example 64, 3-(5H-imidazo[5,1-a]isoindol-5-yl)piperidine-1-sulfonamide] | 6.39 | 5.36
23 | c1ccc2c(c1)-c1cncn1C2C1CC2(COC2)C1 (stereo not drawn) [Example 39, 5-(2-oxaspiro[3.3]heptan-6-yl)-5H-imidazo[5,1-a]isoindole] | 6.23 | 4.96
24 | Fc1cc(C2c3ccccc3-c3cncn32)cc(F)c1F (stereo not drawn) [Example 65, 5-(3,4,5-trifluorophenyl)-5H-imidazo[5,1-a]isoindole] | 6.68 | 5.72
25 | c1ccc2c(c1)-c1cncn1C2C1CCn2nccc2C1 (single isomer, unassigned) [Example 05c] | 4.62 | 
26 | CCS(=O)(=O)Nc1cc2n(n1)CCC(C1c3ccccc3-c3cncn31)=C2 (stereo not drawn) [Example 68, N-(5-(5H-imidazo[5,1-a]isoindol-5-yl)-6,7-dihydropyrazolo[1,5-a]pyridin-2-yl)ethanesulfonamide] | 5.85 | 
27 | OCc1cccc(C2c3ccccc3-c3cncn32)n1 (stereo not drawn) [Example 03, (6-(5H-imidazo[5,1-a]isoindol-5-yl)pyridin-2-yl)methanol] | 4.89 | 
28 | Fc1cc(Cl)cc(C2c3ccccc3-c3cncn32)c1 (stereo not drawn) [Example 40, 5-(3-chloro-5-fluorophenyl)-5H-imidazo[5,1-a]isoindole] | 6.54 | 5.42
29 | O=S(=O)(N1CCC1)N1CCC(C2c3ccc(F)cc3-c3cncn32)CC1 (stereo not drawn) [Example 88, 5-(1-(azetidin-1-ylsulfonyl)piperidin-4-yl)-8-fluoro-5H-imidazo[5,1-a]isoindole] | 6.05 | 5.28
30 | CC(C)(C)OC(=O)N1CCC2(CC1)CC(C1c3ccccc3-c3cncn31)C2 (stereo not drawn) [Example 57, tert-butyl 2-(5H-imidazo[5,1-a]isoindol-5-yl)-7-azaspiro[3.5]nonane-7-carboxylate] | 5.82 | 6.04
31 | Cc1cccc(C2c3ccccc3-c3cncn32)c1 (stereo not drawn) [Example 21, 5-(m-tolyl)-5H-imidazo[5,1-a]isoindole] | 6.44 | 5.01
32 | OCc1cccc([C@@H]2c3ccccc3-c3cncn32)c1 [Example 01a, (R)-(3-(5H-imidazo[5,1-a]isoindol-5-yl)phenyl)methanol] | 4.96 | 
33 | c1ccc2c(c1)-c1cncn1C2C1CCc2ccncc2C1 (stereo not drawn) [Example 46, 5-(5,6,7,8-tetrahydroisoquinolin-7-yl)-5H-imidazo[5,1-a]isoindole] | 7.57 | 5.70
34 | CC(C)CC1c2ccccc2-c2cncn21 (stereo not drawn) [Example 53, 5-isobutyl-5H-imidazo[5,1-a]isoindole] | 6.06 | 5.36
35 | C1=C(C2c3ccccc3-c3cncn32)CCn2cccc21 (stereo not drawn) [Example 04, 5-(5,6-dihydroindolizin-7-yl)-5H-imidazo[5,1-a]isoindole] | 5.64 | 4.92
36 | CNS(=O)(=O)c1cccc(C2c3ccccc3-c3cncn32)c1 (stereo not drawn) [Example 12, 3-(5H-imidazo[5,1-a]isoindol-5-yl)-N-methylbenzenesulfonamide] | 5.74 | 4.96
37 | c1ccc2c(c1)-c1cncn1C2c1cnn2c1CCC2 (stereo not drawn) [Example 87, 5-(5,6-dihydro-4H-pyrrolo[1,2-b]pyrazol-3-yl)-5H-imidazo[5,1-a]isoindole] | 5.57 | 

Row | SMILES | pEC50 (TDO2) | pEC50 (IDO1)
38 | c1ccc2c(c1)-c1cncn1C2CCC1CCCCC1 (stereo not drawn) [Example 22, 5-(2-cyclohexylethyl)-5H-imidazo[5,1-a]isoindole] | 5.64 | 
39 | CS(=O)(=O)N1CCC2(CC1)CC(C1c3ccccc3-c3cncn31)C2 (stereo not drawn) [Example 59, 5-(7-(methylsulfonyl)-7-azaspiro[3.5]nonan-2-yl)-5H-imidazo[5,1-a]isoindole] | 6.62 | 5.82
40 | N#Cc1cccc(C2c3ccccc3-c3cncn32)c1 (stereo not drawn) [Example 17, 3-(5H-imidazo[5,1-a]isoindol-5-yl)benzonitrile] | 5.70 | 4.80
41 | c1ccc2c(c1)-c1cncn1C2C1CCn2nccc2C1 (single isomer, unassigned) [Example 05a] | 5.96 | 
42 | NS(=O)(=O)c1cccc(C2c3ccccc3-c3cncn32)c1 (single isomer, unassigned) [Example 07a] | 5.14 | 
43 | CS(=O)(=O)N1CCCC(C2c3ccccc3-c3cncn32)C1 (stereo not drawn) [Example 71, 5-(1-(methylsulfonyl)piperidin-3-yl)-5H-imidazo[5,1-a]isoindole] | 6.25 | 4.85
44 | NS(=O)(=O)N1CC2C(C1)C2C1c2ccccc2-c2cncn21 (stereo not drawn) [Example 96, 6-(5H-imidazo[5,1-a]isoindol-5-yl)-3-azabicyclo[3.1.0]hexane-3-sulfonamide] | 6.41 | 5.05
45 | OCc1cccc([C@H]2c3ccccc3-c3cncn32)c1 [Example 01b, (S)-(3-(5H-imidazo[5,1-a]isoindol-5-yl)phenyl)methanol] | 6.51 | 5.07
46 | CS(=O)(=O)N1CC2C(C1)C2C1c2ccccc2-c2cncn21 (stereo not drawn) [Example 93, 5-(3-(methylsulfonyl)-3-azabicyclo[3.1.0]hexan-6-yl)-5H-imidazo[5,1-a]isoindole] | 6.11 | 5.07
47 | NC(=O)C1(CC2c3ccccc3-c3cncn32)CC1 (stereo not drawn) [Example 54, 1-((5H-imidazo[5,1-a]isoindol-5-yl)methyl)cyclopropane-1-carboxamide] | 5.27 | 
48 | NC(=O)c1cc(F)cc(C2c3ccccc3-c3cncn32)c1 (stereo not drawn) [Example 51, 3-fluoro-5-(5H-imidazo[5,1-a]isoindol-5-yl)benzamide] | 6.92 | 5.51
49 | CCS(=O)(=O)N1CC(C2c3ccccc3-c3cncn32)C1 (stereo not drawn) [Example 25, 5-(1-(ethylsulfonyl)azetidin-3-yl)-5H-imidazo[5,1-a]isoindole] | 4.85 | 
50 | c1cncc(C2c3ccccc3-c3cncn32)c1 (stereo not drawn) [Example 37, 5-(pyridin-3-yl)-5H-imidazo[5,1-a]isoindole] | 5.39 | 
51 | c1ccc2c(c1)-c1cncn1C2C1CCn2nccc2C1 (single isomer, unassigned) [Example 05b] | 5.77 | 
52 | OCc1ccc(F)c(C2c3ccccc3-c3cncn32)c1 (stereo not drawn) [Example 08, (4-fluoro-3-(5H-imidazo[5,1-a]isoindol-5-yl)phenyl)methanol] | 5.82 | 
53 | c1ccc2c(c1)-c1cncn1C2c1ccncc1 (stereo not drawn) [Example 41, 5-(pyridin-4-yl)-5H-imidazo[5,1-a]isoindole] | 5.60 | 
54 | NC(=O)c1cccc(C2c3ccccc3-c3cncn32)c1 (stereo not drawn) [Example 11, 3-(5H-imidazo[5,1-a]isoindol-5-yl)benzamide] | 6.19 | 
55 | N#CC1(CC2c3ccccc3-c3cncn32)CC1 (stereo not drawn) [Example 48, 1-((5H-imidazo[5,1-a]isoindol-5-yl)methyl)cyclopropane-1-carbonitrile] | 5.21 | 
